Assay results taken from ChEMBL document CHEMBL1909294, “Translating clinical findings into knowledge in drug safety evaluation--drug induced liver injury prediction system (DILIps)” (PLoS Comput Biol, 2011).

Legend:
[1] = tested on: Hepatotoxicity;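 for HepSE cirrhosis: cirrhosis hepatic side effect score taken from the DILIps (drug-induced liver injury prediction) training set; call rule not given here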; for HepSE hepatic failure: call rule not given here;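 for HepSE hepatic necrosis: score of hepatic side effects for hepatic necrosis, drawn from the training data of DILIps, a prediction system for drug-induced liver injury; call rule not given here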;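 for HepSE hepatomegaly: hepatic side effect score for hepatomegaly, taken from the training set of the DILIps drug-induced liver injury prediction system; call rule not given here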;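 for HepSE jaundice: Jaundice-related hepatic side-effect score drawn from the training data of the DILIps (drug-induced liver injury prediction system); call rule not given here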; for HepSE liver disease: call rule not given here;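 for HepSE liver fatty: hepatic side effect score for fatty liver, taken from the DILIps training set for predicting drug-induced liver injury; call rule not given here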
[2] = tested on: Hepatotoxicity; remark: listed apart in the source;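 for HepSE cirrhosis: cirrhosis hepatic side effect score taken from the DILIps (drug-induced liver injury prediction) training set; call rule not given here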; for HepSE hepatic failure: call rule not given here;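 for HepSE hepatic necrosis: score of hepatic side effects for hepatic necrosis, drawn from the training data of DILIps, a prediction system for drug-induced liver injury; call rule not given here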;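 for HepSE hepatomegaly: hepatic side effect score for hepatomegaly, taken from the training set of the DILIps drug-induced liver injury prediction system; call rule not given here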;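 for HepSE jaundice: Jaundice-related hepatic side-effect score drawn from the training data of the DILIps (drug-induced liver injury prediction system); call rule not given here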; for HepSE liver disease: call rule not given here;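 for HepSE liver fatty: hepatic side effect score for fatty liver, taken from the DILIps training set for predicting drug-induced liver injury; call rule not given here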
[3] = tested on: Hepatotoxicity; remark: listed apart in the source;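 for HepSE cirrhosis: cirrhosis hepatic side effect score taken from the DILIps (drug-induced liver injury prediction) training set; call rule not given here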; for HepSE hepatic failure: call rule not given here;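 for HepSE hepatic necrosis: score of hepatic side effects for hepatic necrosis, drawn from the training data of DILIps, a prediction system for drug-induced liver injury; call rule not given here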;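 for HepSE hepatomegaly: hepatic side effect score for hepatomegaly, taken from the training set of the DILIps drug-induced liver injury prediction system; call rule not given here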;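 for HepSE jaundice: Jaundice-related hepatic side-effect score drawn from the training data of the DILIps (drug-induced liver injury prediction system); call rule not given here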; for HepSE liver disease: call rule not given here;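 for HepSE liver fatty: hepatic side effect score for fatty liver, taken from the DILIps training set for predicting drug-induced liver injury; call rule not given here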
[4] = tested on: Hepatotoxicity; remark: listed apart in the source;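 for HepSE cirrhosis: cirrhosis hepatic side effect score taken from the DILIps (drug-induced liver injury prediction) training set; call rule not given here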; for HepSE hepatic failure: call rule not given here;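 for HepSE hepatic necrosis: score of hepatic side effects for hepatic necrosis, drawn from the training data of DILIps, a prediction system for drug-induced liver injury; call rule not given here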;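 for HepSE hepatomegaly: hepatic side effect score for hepatomegaly, taken from the training set of the DILIps drug-induced liver injury prediction system; call rule not given here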;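 for HepSE jaundice: Jaundice-related hepatic side-effect score drawn from the training data of the DILIps (drug-induced liver injury prediction system); call rule not given here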; for HepSE liver disease: call rule not given here;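 for HepSE liver fatty: hepatic side effect score for fatty liver, taken from the DILIps training set for predicting drug-induced liver injury; call rule not given here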
[5] = tested on: Hepatotoxicity; remark: listed apart in the source; for HepSE hepatic failure: call rule not given here; for HepSE liver disease: call rule not given here
[6] = tested on: Hepatotoxicity; remark: listed apart in the source; for HepSE hepatic failure: call rule not given here; for HepSE liver disease: call rule not given here
[7] = tested on: Hepatotoxicity; remark: listed apart in the source
[8] = tested on: Hepatotoxicity; remark: listed apart in the source
[9] = tested on: Hepatotoxicity; remark: listed apart in the source
[10] = tested on: Hepatotoxicity; remark: listed apart in the source
[11] = tested on: Hepatotoxicity; remark: listed apart in the source
[12] = tested on: Hepatotoxicity; remark: listed apart in the source
[13] = tested on: Hepatotoxicity; remark: listed apart in the source
[14] = tested on: Hepatotoxicity; remark: listed apart in the source

SMILES: CC(C)c1nc(N(C)S(C)(=O)=O)nc(-c2ccc(F)cc2)c1/C=C/[C@@H](O)C[C@@H](O)CC(=O)O [ROSUVASTATIN]
- HepSE_hepatic necrosis [1]: 0
- HepSE_hepatitis [2]: 1
- HepSE_liver disease [3]: 0
- HepSE_hepatic failure [4]: 0
- HepSE_bilirubinemia [5]: 0
- HepSE_hepatomegaly [6]: 0
- HepSE_liver fatty [7]: 0
- HepSE_cirrhosis [8]: 0
- HepSE_jaundice [9]: 1
- HepSE_cholelithiasis [10]: 0
- HepSE_cholecystitis [11]: 0
- HepSE_liver function tests abnormal [12]: 0
- HepSE_elevated liver function tests [13]: 0
- HepSE_Combined Scores [14]: 2

SMILES: OCc1cc(C(O)CNCCCCCCOCCCCc2ccccc2)ccc1O (configuration not stated) [SALMETEROL]
- HepSE_hepatic necrosis [1]: 0
- HepSE_hepatitis [2]: 0
- HepSE_liver disease [3]: 0
- HepSE_hepatic failure [4]: 0
- HepSE_bilirubinemia [5]: 0
- HepSE_hepatomegaly [6]: 0
- HepSE_liver fatty [7]: 0
- HepSE_cirrhosis [8]: 0
- HepSE_jaundice [9]: 0
- HepSE_cholelithiasis [10]: 0
- HepSE_cholecystitis [11]: 0
- HepSE_liver function tests abnormal [12]: 0
- HepSE_elevated liver function tests [13]: 0
- HepSE_Combined Scores [14]: 0

SMILES: C[C@H](O)[C@H](O)[C@H]1CNc2nc(N)[nH]c(=O)c2N1 [SAPROPTERIN]
- HepSE_hepatic necrosis [1]: 0
- HepSE_hepatitis [2]: 0
- HepSE_liver disease [3]: 0
- HepSE_hepatic failure [4]: 0
- HepSE_bilirubinemia [5]: 0
- HepSE_hepatomegaly [6]: 0
- HepSE_liver fatty [7]: 0
- HepSE_cirrhosis [8]: 0
- HepSE_jaundice [9]: 0
- HepSE_cholelithiasis [10]: 0
- HepSE_cholecystitis [11]: 0
- HepSE_liver function tests abnormal [12]: 0
- HepSE_elevated liver function tests [13]: 0
- HepSE_Combined Scores [14]: 0

SMILES: C=CCC1(C(C)CCC)C(=O)NC(=O)NC1=O (configuration not stated) [SECOBARBITAL]
- HepSE_hepatic necrosis [1]: 0
- HepSE_hepatitis [2]: 0
- HepSE_liver disease [3]: 0
- HepSE_hepatic failure [4]: 0
- HepSE_bilirubinemia [5]: 0
- HepSE_hepatomegaly [6]: 0
- HepSE_liver fatty [7]: 0
- HepSE_cirrhosis [8]: 0
- HepSE_jaundice [9]: 0
- HepSE_cholelithiasis [10]: 0
- HepSE_cholecystitis [11]: 0
- HepSE_liver function tests abnormal [12]: 0
- HepSE_elevated liver function tests [13]: 0
- HepSE_Combined Scores [14]: 0

SMILES: C#CCN(C)[C@H](C)Cc1ccccc1 [SELEGILINE]
- HepSE_hepatic necrosis [1]: 0
- HepSE_hepatitis [2]: 1
- HepSE_liver disease [3]: 0
- HepSE_hepatic failure [4]: 0
- HepSE_bilirubinemia [5]: 1
- HepSE_hepatomegaly [6]: 0
- HepSE_liver fatty [7]: 0
- HepSE_cirrhosis [8]: 0
- HepSE_jaundice [9]: 0
- HepSE_cholelithiasis [10]: 1
- HepSE_cholecystitis [11]: 1
- HepSE_liver function tests abnormal [12]: 1
- HepSE_elevated liver function tests [13]: 0
- HepSE_Combined Scores [14]: 5

SMILES: Clc1ccc(C(Cn2ccnc2)OCc2csc3c(Cl)cccc23)c(Cl)c1 (configuration not stated) [SERTACONAZOLE]
- HepSE_hepatic necrosis [1]: 0
- HepSE_hepatitis [2]: 0
- HepSE_liver disease [3]: 0
- HepSE_hepatic failure [4]: 0
- HepSE_bilirubinemia [5]: 0
- HepSE_hepatomegaly [6]: 0
- HepSE_liver fatty [7]: 0
- HepSE_cirrhosis [8]: 0
- HepSE_jaundice [9]: 0
- HepSE_cholelithiasis [10]: 0
- HepSE_cholecystitis [11]: 0
- HepSE_liver function tests abnormal [12]: 0
- HepSE_elevated liver function tests [13]: 0
- HepSE_Combined Scores [14]: 0

SMILES: CN[C@H]1CC[C@@H](c2ccc(Cl)c(Cl)c2)c2ccccc21 [SERTRALINE]
- HepSE_hepatic necrosis ([1]; Liver): 0
- HepSE_hepatitis ([2]; Liver): 1
- HepSE_liver disease ([3]; Liver): 0
- HepSE_hepatic failure ([4]; Liver): 1
- HepSE_bilirubinemia ([5]; Liver): 0
- HepSE_hepatomegaly ([6]; Liver): 1
- HepSE_liver fatty ([7]; Liver): 0
- HepSE_cirrhosis ([8]; Liver): 0
- HepSE_jaundice ([9]; Liver): 1
- HepSE_cholelithiasis ([10]; Liver): 0
- HepSE_cholecystitis ([11]; Liver): 0
- HepSE_liver function tests abnormal ([12]; Liver): 0
- HepSE_elevated liver function tests ([13]; Liver): 0
- HepSE_Combined Scores ([14]; Liver): 4

SMILES: FCOC(C(F)(F)F)C(F)(F)F [SEVOFLURANE]
- HepSE_hepatic necrosis [1]: 1
- HepSE_hepatitis [2]: 1
- HepSE_liver disease [3]: 0
- HepSE_hepatic failure [4]: 1
- HepSE_bilirubinemia [5]: 1
- HepSE_hepatomegaly [6]: 0
- HepSE_liver fatty [7]: 0
- HepSE_cirrhosis [8]: 0
- HepSE_jaundice [9]: 1
- HepSE_cholelithiasis [10]: 0
- HepSE_cholecystitis [11]: 0
- HepSE_liver function tests abnormal [12]: 0
- HepSE_elevated liver function tests [13]: 0
- HepSE_Combined Scores [14]: 5
